Values joined by “and” are separate entries in the source; they are usually repeats but may differ in a detail not shown here. Equal values may be shown once. Read-outs that look alike come from different tables or passages of the source.
Assays:
Type in all cases: cell-based, Escherichia coli
[1] = tested on: EKO-35-Pore acrBD408A (functionally inactive AcrB variant); test: Checkerboard synergy (FICI), porinated strain; details: EKO-35 acrBD408A Pore
Summary of the method: (§1)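 Checkerboard broth microdilution in MHB II followed CLSI guidelines, with MIC defined as the lowest concentration giving no growth by OD600. FICI was calculated as CA/MICA + CB/MICB for PAβN or NMP combined with an antibiotic, with <0.5 classed as synergistic. Efflux-attributed fold resistance is the strain MIC divided by the EKO-35 MIC.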

[2] = tested on: EKO-35-Pore; test: Checkerboard synergy (FICI), porinated strain; details: EKO-35 Pore
Summary of the method: as §1

[3] = tested on: wild-type K-12-Pore; test: Checkerboard synergy (FICI), porinated strain; details: K-12 Pore
Summary of the method: as §1

[4] = tested on: EKO-35 porinated strain expressing acrB; test: Checkerboard synergy (FICI), porinated strain; details: EKO-35 acrB Pore
Summary of the method: as §1

[5] = tested on: EKO-35; details: for PABN MICa Alone / PABN MICa Combined: EKO-35; for PABN MICa Alone: PAβN alone, one value per checkerboard
Summary of the method: as §1

[6] = tested on: wild-type E. coli K-12; details: K-12
Summary of the method: as §1

[7] = tested on: EKO-35 acrBD408A; details: EKO-35 acrBD408A; for PABN MICa Alone: PAβN alone, one value per checkerboard
Summary of the method: as §1

[8] = tested on: ΔtolC-Pore; details: ΔtolC Pore; for PABN MICa Alone: PAβN alone, one value per checkerboard
Summary of the method: as §1

[9] = tested on: ΔtolC; details: ΔtolC; for PABN MICa Alone: PAβN alone, one value per checkerboard
Summary of the method: as §1

“phenylalanine-arginine-β-naphthylamide [PAβN]” was tested, and the “PABN MICa Combined” value ([1]; with Ciprofloxacin) was 8 µg/mL, the “PABN MICa Combined” value ([1]; with Erythromycin) was 16 µg/mL and the “PABN MICa Combined” value ([1]; with Fusidic Acid) was 8 µg/mL. The “PABN MICa Combined” value ([1]; with Linezolid) was 32 µg/mL, the “PABN MICa Combined” value ([1]; with Novobiocin) was 8 µg/mL and the “PABN MICa Combined” value ([1]; with Oxacillin) was 32 µg/mL. The “PABN MICa Alone” value ([2]; PAβN alone, one value per checkerboard, listed as PABN) was 64 µg/mL and 32 µg/mL, the “PABN MICa Combined” value ([2]; with Ciprofloxacin) was 2 µg/mL and the “PABN MICa Combined” value ([2]; with Erythromycin) was 8 µg/mL. For the same substance, the “PABN MICa Combined” value ([2]; with Fusidic Acid) was 16 µg/mL, the “PABN MICa Combined” value ([2]; with Linezolid) was 32 µg/mL and the “PABN MICa Combined” value ([2]; with Novobiocin) was 16 µg/mL. The “PABN MICa Combined” value ([2]; with Oxacillin) was 32 µg/mL, the “PABN MICa Combined” value ([3]; with Ciprofloxacin) was 256 µg/mL and the “PABN MICa Combined” value ([3]; with Erythromycin) was 64 µg/mL. The “PABN MICa Combined” value ([3]; with Fusidic Acid) was 32 µg/mL, the “PABN MICa Combined” value ([3]; with Linezolid) was 32 µg/mL and the “PABN MICa Combined” value ([3]; with Novobiocin) was 2 µg/mL. The “PABN MICa Combined” value ([3]; with Oxacillin) was 64 µg/mL, the “PABN MICa Combined” value ([4]; with Erythromycin) was 16 µg/mL and the “PABN MICa Combined” value ([4]; with Fusidic Acid) was 32 µg/mL. The “PABN MICa Combined” value ([4]; with Linezolid) was 16 µg/mL, the “PABN MICa Combined” value ([4]; with Novobiocin) was 16 µg/mL and the “PABN MICa Combined” value ([4]; with Oxacillin) was 16 µg/mL. The “PABN MICa Alone” value [5] was 64 µg/mL, the “PABN MICa Alone” value ([5]; listed as PABN) was 128 µg/mL and the “PABN MICa Combined” value ([5]; with Ciprofloxacin) was 4 µg/mL. For the same substance, the “PABN MICa Combined” value ([5]; with Erythromycin) was 8 µg/mL, the “PABN MICa Combined” value ([5]; with Fusidic Acid) was 16 µg/mL and the “PABN MICa Combined” value ([5]; with Linezolid) was 32 µg/mL. For the same substance, the “PABN MICa Combined” value ([5]; with Novobiocin) was 8 µg/mL, the “PABN MICa Combined” value ([5]; with Oxacillin) was 4 µg/mL and the “susceptibility to the efflux pump inhibitor alone, efflux-deficient strains vs wild-type” value ([5]; efflux-deficient strains EKO-35, EKO-35 acrBD408A, ΔtolC) was “exhibits antibacterial activity, which is enhanced upon efflux inactivation”. The “PABN MICa Alone” value ([6]; PAβN alone, one value per checkerboard) was 256 µg/mL, the “PABN MICa Combined” value ([6]; with Ciprofloxacin) was 64 µg/mL and the “PABN MICa Combined” value ([6]; with Erythromycin) was 16 µg/mL. The “PABN MICa Combined” value ([6]; with Fusidic Acid) was 32 µg/mL, the “PABN MICa Combined” value ([6]; with Linezolid) was 16 µg/mL and the “PABN MICa Combined” value ([6]; with Novobiocin) was 32 µg/mL. The “PABN MICa Combined” value ([6]; with Oxacillin) was 32 µg/mL, the “PABN MICa Alone” value [7] was 64 µg/mL and the “PABN MICa Alone” value ([7]; listed as PABN) was 128 µg/mL. The “PABN MICa Combined” value ([7]; with Ciprofloxacin) was 8 µg/mL, the “PABN MICa Combined” value ([7]; with Erythromycin) was 8 µg/mL and the “PABN MICa Combined” value ([7]; with Fusidic Acid) was 8 µg/mL. For the same substance, the “PABN MICa Combined” value ([7]; with Linezolid) was 32 µg/mL, the “PABN MICa Combined” value ([7]; with Novobiocin) was 8 µg/mL and the “PABN MICa Combined” value ([7]; with Oxacillin) was 16 µg/mL. The “PABN MICa Alone” value [8] was 64 µg/mL, the “PABN MICa Alone” value ([8]; listed as PABN) was 128 µg/mL and the “PABN MICa Combined” value ([8]; with Ciprofloxacin) was 64 µg/mL. For the same substance, the “PABN MICa Combined” value ([8]; with Erythromycin) was 16 µg/mL, the “PABN MICa Combined” value ([8]; with Fusidic Acid) was 32 µg/mL and the “PABN MICa Combined” value ([8]; with Linezolid) was 64 µg/mL. For the same substance, the “PABN MICa Combined” value ([8]; with Novobiocin) was 32 µg/mL, the “PABN MICa Combined” value ([8]; with Oxacillin) was 64 µg/mL and the “PABN MICa Alone” value [9] was 64 µg/mL. For the same substance, the “PABN MICa Alone” value ([9]; listed as PABN) was 128 µg/mL, the “PABN MICa Combined” value ([9]; with Ciprofloxacin) was 32 µg/mL and the “PABN MICa Combined” value ([9]; with Erythromycin) was 8 µg/mL. For the same substance, the “PABN MICa Combined” value ([9]; with Fusidic Acid) was 16 µg/mL, the “PABN MICa Combined” value ([9]; with Linezolid) was 64 µg/mL and the “PABN MICa Combined” value ([9]; with Novobiocin) was 16 µg/mL. The “PABN MICa Combined” value ([9]; with Oxacillin) was 8 µg/mL.

— patent US20230407243A1, “GENETIC PLATFORM TO INVESTIGATE THE FUNCTIONS OF BACTERIAL DRUG EFFLUX PUMPS” (priority 2022, published 2023)
